The source of these data is patent US4795752A, “Amide derivatives and antiallergic agents containing the same” (Terumo Kabushiki Kaisha, priority 1985, dated 1989).

The test system of the assay is PCA reaction. The assay is described as follows: PCA reaction-inhibitory effects in rats (passive cutaneous anaphylaxis, oral administration, Evans Blue dye exudation). As to conditions: for Inhibition (%) mean ± SE: one hour before challenge; for ED50: Rattus norvegicus, from the percent inhibition-concentration graph, read-out: ID50 against exudation of the dye. The assay is classed as in vivo, rats (female Sprague-Dawley). The method, then:
DNP-ascaris (1 mg) prepared by combining a swine ascaris extract with 2,4-dinitrophenyl sulfate was mixed with 20 mg of aluminum hydroxide gel. The mixture was administered to rats subcutaneously on the back, and at the same time the animals were intraperitoneally given 2×10^10 dead Bordetella pertussis respectively. The same procedures were repeated after 14 days, and blood sample was obtained after 21 days to produce antisera.
Female Sprague-Dawley strain rats (8 weeks old) were sensitized by subcutaneously administering 0.1 ml of 1:256 diluted antisera (titer=1024)respectively on the grained back. After 48 hours, groups of four rats were orally given the amide derivatives produced in the examples above at various concentrations. After one hour, the rats were challenged by intravenously administering a 0.5% physiological saline solution of Evans Blue containing 1 mg of the DNP-ascaris from the tail. After 30 minutes, the animal was sacrificed by bleeding and the portion of the skin with the dye exuded was cut off. The cut skin was treated with 1N--KOH solution, and the dye was extracted by adding 9 ml of 0.6N-phosphoric acid-acetone (5:13) mixture. The supernatant from centrifugal separation was measured for absorbancy at 620 nm to determine amount of the dye. Percent inhibition at each of the concentrations of the amide derivatives was calculated in comparison with amount of the dye for control group. 50% Inhibitory concentration (ID50) of the amide derivatives against exudation of the dye was determined from the percent inhibition-concentration graph. Results are shown in Table-I. Percent inhibition of tranilast, an antiallergic agent commercially available from Kissei Pharmaceutical Co., Ltd. under the trade name of Rizaben against PCA reaction was also shown in Table-I. As shown in Table-I, the amide derivatives of the invention produced high PCA reaction-inhibitory effects.

`CCOC(=O)Oc1ccc(/C=C/C=C/C(=O)NCCN2CCC(OC(c3ccccc3)c3ccccc3)CC2)cc1OC` [Example 1, 1-[2-[5-(3-methoxy-4-ethoxycarbonyloxyphenyl)-2,4-pentadienoyl]aminoethyl]-4-benzhydroxypiperidine]: the ED50 was 10 mg/kg. Besides, the “Inhibition (%) mean ± SE” value (3 mg/kg) stood at 26 ± 15%. In addition, for the setting “10 mg/kg”, the “Inhibition (%) mean ± SE” value came out at 51 ± 18%. For the same compound, the “Inhibition (%) mean ± SE” value (30 mg/kg) is 71 ± 6%.

As for `CCOC(=O)Oc1ccc(/C=C/C=C/C(=O)NCCN2CCC(OC(c3ccccc3)c3ccccc3)CC2)cc1OC(=O)OCC` [Example 5, 1-[2-[5-(3,4-diethoxycarbonyloxyphenyl)-2,4-pentadienoyl]aminoethyl]-4-benzhydroxypiperidine], the “Inhibition (%) mean ± SE” value (3 mg/kg) is reported as 30 ± 16%, the “Inhibition (%) mean ± SE” value (10 mg/kg) is on record as 55 ± 10% and the “Inhibition (%) mean ± SE” value (30 mg/kg) stood at 75 ± 4%.

Take `CCOC(=O)Oc1ccc(/C=C/C=C/C(=O)NCCCN2CCN(C(c3ccccc3)c3ccccc3)CC2)cc1OC` [Example 3, 1-[3-[5-(3-methoxy-4-ethoxycarbonyloxyphenyl)-2,4-pentadienoyl]aminopropyl]-4-benzhydrylpiperazine]: the ED50 stood at 55 mg/kg. Also, the “Inhibition (%) mean ± SE” value (10 mg/kg) stood at 19 ± 14%. The “Inhibition (%) mean ± SE” value (30 mg/kg) was determined as 38 ± 15%. The “Inhibition (%) mean ± SE” value (100 mg/kg) stood at 63 ± 5%.

As for `COc1ccc(/C=C/C(=O)Nc2ccccc2C(=O)O)cc1OC` [Control, tranilast, reference compound], the ED50 was > 300 mg/kg. Moreover, the “Inhibition (%) mean ± SE” value (100 mg/kg) stood at 37 ± 8%. Besides, for the setting “200 mg/kg”, the “Inhibition (%) mean ± SE” value was 40 ± 10%. Moreover, the “Inhibition (%) mean ± SE” value (300 mg/kg) is recorded as 42 ± 5%.

As to `CCOC(=O)Oc1ccc(/C=C/C(=O)NCCN2CCC(OC(c3ccccc3)c3ccccc3)CC2)cc1OC` [Example 2, 1-[2-[3-(3-methoxy-4-ethoxycarbonyloxyphenyl)-2-propenoyl]-aminoethyl]-4-benzhydroxypiperidine], the ED50 was determined as 15 mg/kg. For the same compound, the “Inhibition (%) mean ± SE” value (3 mg/kg) was 20 ± 15%. Also, the “Inhibition (%) mean ± SE” value (10 mg/kg) turned out to be 41 ± 16%. The “Inhibition (%) mean ± SE” value (30 mg/kg) was found to be 64 ± 5%.

In the case of `CCOC(=O)Oc1ccc(/C=C/C(=O)NCCN2CCC(OC(c3ccccc3)c3ccccc3)CC2)cc1OC(=O)OCC` [Example 4], the ED50 stood at 12 mg/kg. Moreover, the “Inhibition (%) mean ± SE” value (3 mg/kg) worked out at 22 ± 14%. Besides, the “Inhibition (%) mean ± SE” value (10 mg/kg) worked out at 46 ± 10%. In addition, for the setting “30 mg/kg”, the “Inhibition (%) mean ± SE” value is recorded as 68 ± 7%.
